One data set deals with IRF3 signaling pathway. The data set can be described thus: IRF-Lucia luciferase reporter in THP1-Dual cells. The format is cell-based, human. As to conditions: Nano-11 80 μg/ml, ADU-S100 5 μg/ml; FIG. 1F. How it is done:
(§1) For preparation of cells for activation in vitro, human THP-1 cells (TIB-202; American Type Culture Collection Manassas, VA) were cultured in complete RPMI (RPMI 1640 supplemented with 2 mM L-glutamine, 55 μM β-mercaptoethanol, 1×non-essential amino acids, 10 mM HEPES, 100 U/ml penicillin, 100 μg/ml streptomycin, and 0.25 μg/ml amphotericin) with 10% FBS. Cells were seeded at a density of 5×10^5 cells/well in a 96-well plate, stimulated with Nano-11 (80 μg/ml) and ADU-S100 (5 μg/ml) for 24 hours and 48 hours at 37° C. with 5% CO2, and then processed for flow cytometry analysis. Similarly, the NF-κB-SEAP and IRF-Luc reporter THP1-Dual cells (InvivoGen, San Diego, CA) were grown at a density of 1×10^5 cells/well in a 96-well plate in complete RPMI supplemented with 10% FBS, 100 μg/ml zeocin, 100 μg/ml normocin, and 10 μg/ml blasticidin. THP1-Dual cells were subsequently stimulated with Nano-11 (80 μg/ml) and ADU-S100 (5 μg/ml) for 24 hours and 48 hours at 37° C. with 5% CO2, and the supernatants were collected for NF-κB and IRF pathway activation quantification.

The test system of data set [1] is recurrent or metastatic head and neck squamous cell carcinoma. The note with it: in conjunction with pembrolizumab; cited from earlier work.
In the next data set the test system is human STING alleles. As to conditions: cited from earlier work.
In data set [2] the test system is GC B cells and follicular helper T (Tfh) cells. Put plainly: Intradermal immunization with OVA: draining lymph node, GC B cells and Tfh cells. The format is in vivo, C57BL/6J mice. The note with it: 10 days after second i.d. injection of the ear pinna. On the procedure:
(§2) For all experiments, six- to eight-week-old female C57BL/6J mice were purchased from the Jackson Laboratory (Bar Harbor, ME). They were housed in ventilated cages with ad libitum access to food and water, with three to four animals per box. The room was kept at 20±2° C. and 50±15% relative humidity, with a light/dark cycle of 12 hours. An acclimatization period of one week was given to the mice before the onset of the experiments. The Purdue University Animal Care and Use Committee gave approval to all animal experiments. Mice received 20 μl of vaccine through intradermal injection into the pinna of the ear. The vaccines were administered again after 7 or 21 days. Inhalational isoflurane was used to induce anesthesia in mice. Blood and tissue samples were collected 10 days after the second immunization, unless otherwise specified.
For flow cytometry analysis, single-cell suspensions were prepared from isolated splenocytes or lymph nodes and washed with Cell Staining Buffer (CSB; BioLegend, San Diego, CA). The staining protocols were conducted in accordance with the manufacturer's instructions, and unless otherwise specified, all mAbs were obtained from BioLegend. […] Flow cytometry was conducted using an Attune NxT flow cytometer (Invitrogen, Waltham, MA), and the data were analyzed using FlowJo software (FlowJo, Ashland, OR).

The test system of data set [3] is tumor-specific CD8+ T cells. As to conditions: intratumoral injection; cited from earlier work.
The next data set deals with human THP-1 cells. Put plainly: CD80 and CD86 expression on stimulated THP-1 cells (flow cytometry). The format is cell-based. As to conditions: Nano-11 80 μg/ml, ADU-S100 5 μg/ml, 24 and 48 hours. On the procedure:
as §1, with “Similarly, the NF-κB-SEAP and IRF-Luc reporter THP1-Dual cells (InvivoGen, San Diego, CA) were grown at a density of 1×10^5 cells/well in a 96-well plate in complete RPMI supplemented with 10% FBS, 100 μg/ml zeocin, 100 μg/ml normocin, and 10 μg/ml blasticidin.” left out
For flow cytometry analysis, single-cell suspensions were prepared from isolated splenocytes or lymph nodes and washed with Cell Staining Buffer (CSB; BioLegend, San Diego, CA). […] Flow cytometry was conducted using an Attune NxT flow cytometer (Invitrogen, Waltham, MA), and the data were analyzed using FlowJo software (FlowJo, Ashland, OR).

For the next data set, the system named is OVA. Put plainly: ELISA of serum OVA-specific IgG, IgG1, IgG2c titers. The class given is in vivo, C57BL/6J mice. The note with it: 10 days after second i.d. vaccination with OVA. On the procedure: as §2
OVA-specific IgG, IgG1, and IgG2c titers were measured by enzyme-linked immunosorbent assays (ELISA) on serum samples taken 10 days following the second vaccination, as previously reported (Hernandez-Franco (2021)). […] The reaction was stopped with the addition of 50 μl 2 M sulfuric acid, and absorbance at 450 nm (OD 450) was determined using the Synergy HT microplate reader (BioTek, Winooski, VT). End-point titers for OVA-specific antibodies were determined when the dilution at which OD 450 nm approached 0.2. […]

In data set [4] the test system is metastatic solid tumors or lymphomas. The note with it: intra-tumoral injection, patients; cited from earlier work.
The test system of data set [5] is SIINFEKL-specific B3Z CD8+ T cell hybridoma. Put plainly: B3Z antigen cross-presentation assay with DC2.4 cells. The class given is cell-based, murine. The note with it: OVA with 80 μg/ml Nano-11 and/or 5 μg/ml ADU-S100; OD 590. How it is done:
The B3Z CD8^+ T cell hybridoma cell line that expresses β-galactosidase under the control of the IL-2 promoter was utilized to detect antigen cross-presentation of the OVA 257-264 (SIINFEKL, InvivoGen, San Diego, CA) peptide (see Cruz et al., Annu. Rev. Immunol. 35: 149-176 (2017), which is incorporated herein by reference). Briefly, DC2.4 cells at 1×10^5 cells/well on 96-well round bottom plates were cultured in complete RPMI containing 10% FBS. The DC2.4 cells were stimulated with 10, 100, or 1,000 μg/ml OVA adsorbed to 80 μg/ml Nano-11 or the NanoST nanoparticle adjuvant comprised of 80 μg/ml Nano-11 and 5 μg/ml ADU-S100 (NanoST) for 3 hours at 37° C. with 5% CO2. Cells in media only or treated with 0.5 μg/ml OVA 257-264 (SIINFEKL) served as negative and positive controls, respectively. The cells were centrifuged at 300×g for 5 minutes and then washed three times with 200 μl of sterile PBS/0.1% BSA. Following fixation with 200 μl of phosphate-buffered saline (PBS)/0.2% paraformaldehyde for 15 minutes at 4° C., cells were washed twice with complete RPMI. Each well was seeded with 1×10^5 B3Z cells in complete RPMI containing 10% FBS for 16 hours at 37° C. with 5% CO2. […] After 2, 4, 6, 8, 12, and 24 hours, the conversion of […] was quantified by measuring the absorbance at 590 nm (OD 590) using a microplate reader (BioTek Instruments, Winooski, VT).

The next data set deals with NF-κB signaling pathway. The data set can be described thus: NF-κB-SEAP reporter in THP1-Dual cells. The format is cell-based, human. As to conditions: Nano-11 80 μg/ml, ADU-S100 5 μg/ml; FIG. 1E. How it is done:
as §1

The next data set deals with E.G7-OVA lymphoma cells. The data set can be described thus: Preventive intradermal vaccination, E.G7-OVA tumor challenge. The class given is in vivo, C57BL/6J mice. The note with it: two i.d. immunizations, three-week interval, then s.c. inoculation.
For the next data set, the system named is B16-OVA tumors. Put plainly: Therapeutic intradermal vaccination of B16-OVA-bearing mice. The note with it: i.d. vaccination at 8 and 15 days post-tumor inoculation. The format is in vivo, C57BL/6J mice.
The test system of the next data set is B16-OVA melanoma cells. The data set can be described thus: Preventive intradermal vaccination, B16-OVA tumor challenge. The class given is in vivo, C57BL/6J mice. The note with it: two i.d. immunizations, three-week interval, then s.c. inoculation.
The test system of a further data set is E.G7-OVA tumors. Put plainly: Therapeutic intradermal vaccination of E.G7-OVA-bearing mice. The note with it: by day 10.

Protocol for B16-OVA melanoma cells: (§3) The efficacy of preventive cancer vaccines was investigated by two intradermal injections with OVA, Nano-11+OVA, NanoST+OVA, or PBS with a 21-day interval. Eleven days following the second injection, mice were inoculated subcutaneously in the flank with 1.0×10^6 B16-OVA, B16, or 2.5×10^6 E.G7-OVA cells suspended in 100 μl of PBS. […] Using a caliper, the length (maximum longitudinal dimension) and width (maximum transverse dimension) of the subcutaneous tumor were measured in order to determine the approximate volume. Tumor volume was calculated using the ellipsoidal formula: V=½×(Length×Width^2). Each tumor was measured by three observers to account for interobserver variability. The tumor endpoint measurements were taken when the tumors reached a volume of 2,000 mm^3, when the tumors became ulcerated, when the body condition scores dropped below 2, or when the mice became moribund. Mice without palpable tumors 32 days after tumor inoculation were considered tumor-free and euthanized.
(§4) To evaluate the contribution of CD4^+ and CD8^+ T cells response to prophylactic-mediated vaccine protection against B16-OVA and E.G7-OVA tumor formation, C57BL/6J mice were vaccinated with OVA, Nano-11+OVA, or NanoST+OVA, and 21 days later the vaccination was repeated. […] The tumor growth and survival of mice were monitored for 33 days post-tumor inoculation.
Protocol for B16-OVA tumors: (§5) To mimic therapeutic immunotherapy, C57BL/6J mice were injected subcutaneously (s.c.) with 1.0×10^6 B16-OVA or 2.5×10^6 E.G7-OVA cells on day 0 to establish the tumor model. The B16-OVA-bearing mice received the same intradermal prophylactic vaccination (OVA, Nano-11+OVA, or NanoST+OVA) 8 days after tumor inoculation, followed by a second injection on day 15. The identical vaccination regimen was administered to E.G7-OVA-26 bearing mice at 1 and 21 days after tumor inoculation. The tumor endpoint measurements were recorded as described under prophylactic cancer vaccines. Mice without visible tumors were deemed tumor-free and euthanized 32 or 33 days post-tumor inoculation.
Protocol for E.G7-OVA lymphoma cells: as §3, §4
Protocol for E.G7-OVA tumors: as §5

Turning to `Nc1ncnc2c1ncn2[C@@H]1O[C@@H]2COP(=O)([S-])O[C@@H]3[C@H](O)[C@@H](COP([O-])(=S)O[C@H]2[C@H]1O)O[C@H]3n1cnc2c(N)ncnc21.[Na+].[Na+]` (stereo partly drawn) [ADU-S100], the IRF3 activation entry in the data set with IRF3 signaling pathway was “activated NF-κB and IRF3”. In data set [1], the adverse reactions entry is on record as “no adverse reactions” and the anti-tumor efficacy result was “only modest anti-tumor efficacy”. In the data set with human STING alleles, the “affinity to human STING alleles” value was “superior affinity to all known human STING alleles”. For the same molecule, the “size of draining lymph node (superficial parotid)” value in data set [2] is “enlarged draining lymph node”. Besides, the “generation of tumor-specific CD8+ T cells” value in data set [3] is “leads to the generation of tumor-specific CD8”. In addition, the CD80 expression result with human THP-1 cells (FIGS. 1A, 1C) is listed as “induced CD80 expression”. The CD86 expression entry with human THP-1 cells (FIGS. 1B, 1D) is listed as “neither of which had any effect on CD86 expression”. Also, in the data set with OVA, the “anti-OVA IgG1 titer” value is “enhanced anti-OVA total IgG and IgG1 titers”; the “anti-OVA total IgG titer” value is “enhanced anti-OVA total IgG and IgG1 titers”. In data set [4], the anti-tumor activity result was “failed to demonstrate conclusive evidence of anti-tumor activity” and the dose-limiting toxicities entry is given as “no dose-limiting toxicities”. Also, the “cross-presentation of OVA and activation of B3Z CD8+ T cells by DC2.4 cells” value in data set [5] is on record as “decreased the cross-presentation of OVA”. The NF-κB activation result in the data set with NF-κB signaling pathway was “activated NF-κB and IRF3”.

Turning to “OVA: endotoxin-free ovalbumin, model tumor-specific antigen, given unadjuvanted”, the “development of E.G7-OVA lymphomas” value in the data set on E.G7-OVA lymphoma cells is “positive for tumors”. The “survival of B16-OVA tumor-bearing mice” value in the data set with B16-OVA tumors was “none of the OVA-vaccinated mice survived to day 20”. Also, the “development of B16-OVA tumors” value in the data set with B16-OVA melanoma cells is given as “positive for tumors”. In the data set with E.G7-OVA tumors, the tumor formation is 100%.

The values above are taken from patent US20260273046A1, “METHOD OF VACCINATING FOR CANCER AND DEVICE AND KIT THEREFOR” (priority 2023, published 2026).
